pIC50, pKi: −log10 of the molar value. Like-named read-outs stand apart in the source and are kept apart here.
How the values were obtained:
human histamine H3R = molecular target: T1, human histamine H3R (Homo sapiens, UniProt Q9Y5N1); assay: [3H]Nα-methylhistamine radioligand displacement assay, HEK-293 cell membranes; assay type: binding
T1 construct: expressed in transfected cells
Method: As described previously, the affinity for the human histamine H3R was tested utilizing radioligand displacement assays with [^3H]N^α-methylhistamine at membrane preparations from human embryonic kidney (HEK)-293 cells, stably expressing the receptor. […] The analysis of data was conducted by the software GraphPad Prism 7 (San Diego, CA, USA), using the “one-site competition” equation. Ki values were calculated from the 50 percent of inhibitory concentration (IC50) values according to the Cheng-Prusoff equation [44]

human H1 receptor = molecular target: T2, human H1 receptor (Homo sapiens, UniProt P35367); assay: Radioligand binding, membranes from CHO-K1 cells
T2 construct: purchased PerkinElmer; host or cells: CHO-K1 cells, stably transfected (membranes)
T2 sequence (P35367 whole entry): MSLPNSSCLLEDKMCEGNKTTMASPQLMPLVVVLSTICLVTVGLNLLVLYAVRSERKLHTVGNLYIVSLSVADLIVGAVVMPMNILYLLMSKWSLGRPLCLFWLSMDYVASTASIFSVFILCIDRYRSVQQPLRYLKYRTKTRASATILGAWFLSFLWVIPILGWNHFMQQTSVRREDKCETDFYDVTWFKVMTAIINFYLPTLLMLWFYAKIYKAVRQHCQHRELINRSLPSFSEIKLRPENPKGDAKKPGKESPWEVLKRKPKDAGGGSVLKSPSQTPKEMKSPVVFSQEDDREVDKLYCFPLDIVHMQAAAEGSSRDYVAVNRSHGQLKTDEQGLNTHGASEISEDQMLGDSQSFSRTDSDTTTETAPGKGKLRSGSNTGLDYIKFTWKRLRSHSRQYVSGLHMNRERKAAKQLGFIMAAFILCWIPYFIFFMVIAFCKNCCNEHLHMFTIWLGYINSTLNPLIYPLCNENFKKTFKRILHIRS
Method: Radioligand binding was performed as previously described using membranes from CHO-K1 cells stably transfected with the human H1 receptor (PerkinElmer., Waltham, MA, USA). Data were fitted to a one-site curve-fitting equation with Prism 6 (GraphPad Software, city, state, country) and Ki values were estimated from the Cheng–Prusoff equation [44].

MES-induced seizure = assay: Maximal electroshock (MES)-induced seizure; assay type: in vivo, Wistar rats; details: 10 mg/kg i.p.; for MES-Induced Seizure (protection class): 50 Hz, 120 mA, 1 s
Description: As previously described, the seizures were induced in rats with a 50 Hz alternating current of 120 mA intensity. The current was applied through ear electrodes for 1 s. Protection against the spread of MES-induced seizure was defined as the abolition of the tonic hind limb extension (THLE) component of the seizure. For the first screening of protective effects of test compounds 1–16 in the MES-induced seizure model, the animals were divided into eighteen groups of seven rats (n = 7) as follows; group (1) control group injected with vehicle (SAL), group (2) positive control group in which rats were injected with PHT at a dose of 10 mg/kg (this being the minimal dose of PHT that protected animals against the spread of MES-induced seizures without mortality), and groups (3)–(18) animals in the experimental groups were administered H3R antagonists 1–16 at a dose of 10 mg/kg. In another MES experiment in three separate groups of six rats (n = 6), H3R antagonist 4 with the most promising protection in MES model was administered at doses of 2.5, 5, or 15 mg/kg, i.p. 30–45 min before the MES challenge.

PTZ-induced seizure = assay: Pentylenetetrazole (PTZ)-induced seizure; assay type: in vivo, Wistar rats; details: 10 mg/kg i.p.; for PTZ-Induced Seizure (protection class): PTZ 60 mg/kg
Method: (§1) In this study and according to previously used protocols, two chemical agents have been used to induce seizures, namely pentylenetetrazole (PTZ, 60 mg/kg, i.p.) and strychnine (STR, 3.5 mg/kg, i.p.). PTZ 60 mg/kg or STR 3.5 mg/kg were administered i.p. to all groups of seven rats (n = 7), that is, animals pretreated with vehicle or test compounds 1–16. Vehicle, VPA (300 mg/kg, i.p.), [26, 47, 48, 49] or test compounds 1–16 (10 mg/kg, i.p.) were systemically administered 30–45 min before PTZ (60 mg/kg, i.p.) or STR (3.5 mg/kg, i.p.) injection, and animals were directly observed for any signs of convulsion for a duration of 30 min. The observed scores as well as percent protection against generalized tonic-clonic seizure (GTCS) were graded and scaled according to the Racine scale (stage 0, no change in behavior; stage 1, stereotype mouthing, eye blinking, and/or mild facial clonus; stage 2, head nodding and/or severe facial clonus; stage 3, myoclonic jerk in forelimbs; stage 4, clonic convulsions in the forelimbs with rearing; stage 5, generalized colonic convulsions associated with loss of balance) to evaluate the protection provided by the respective test compound against seizures. The animals were divided into eighteen groups of seven rats (n = 7) and treated as follows.
(§2) (1) Control group injected with vehicle + PTZ (SAL group), (2) positive control group in which rats were injected with VPA (300 mg/kg) + PTZ (VPA group), and animals in the test groups (3)–(18) were systemically administered with test compounds 1–16 (10 mg/kg), respectively. An additional PTZ experiment was conducted using three different groups of seven rats (n = 7), the H3R ligand with the most promising protection in PTZ model was administered at doses of 2.5, 5, or 15 mg/kg, i.p. 30–45 min before the PTZ challenge. […] The same experimental procedure was followed in the STR-induced seizure model applying the reference drug VPA, which was used at a dose of 300 mg/kg, i.p. (Figure 3, Table 2).

STR-induced seizure = assay: Strychnine (STR)-induced seizure; assay type: in vivo, Wistar rats; details: for STR-Induced Seizure (protection class): STR 3.5 mg/kg
Method: as §1, §2

CYP2D6 = CYP2D6 (Homo sapiens, UniProt P10635); assay: Luminescent CYP2D6 P450-Glo assay; details: human
Sequence of CYP2D6 (P10635 whole entry): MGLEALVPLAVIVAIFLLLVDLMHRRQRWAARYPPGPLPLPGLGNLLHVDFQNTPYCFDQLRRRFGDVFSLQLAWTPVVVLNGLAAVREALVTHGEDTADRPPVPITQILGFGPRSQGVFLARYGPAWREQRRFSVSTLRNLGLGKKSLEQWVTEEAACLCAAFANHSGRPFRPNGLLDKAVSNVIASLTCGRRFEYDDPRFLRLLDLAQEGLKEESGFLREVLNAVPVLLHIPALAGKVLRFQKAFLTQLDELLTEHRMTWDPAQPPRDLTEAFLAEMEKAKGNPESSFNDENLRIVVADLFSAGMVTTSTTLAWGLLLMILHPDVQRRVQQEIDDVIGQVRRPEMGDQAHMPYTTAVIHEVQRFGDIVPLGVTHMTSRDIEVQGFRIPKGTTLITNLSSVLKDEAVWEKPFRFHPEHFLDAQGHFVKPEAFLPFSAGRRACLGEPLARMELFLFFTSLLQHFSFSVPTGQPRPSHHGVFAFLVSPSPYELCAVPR
Method: The metabolic interactions of H3R antagonist 4 were determined by the luminescent P450-Glo™ 3A4 and 2D6 assays purchased from Promega®. All enzymatic reactions were performed according to the manufacturer protocols and as previously described. […] The luminescence was measured with a microplate reader EnSpire (PerkinElmer). The final concentration of H3R antagonist 4 was in the range of 0.1–25 µM, whereas reference inhibitory effects ranged from 0.01 µM to 10 µM. The IC50 values’ calculations were performed by GraphPad Prism™ software (version 5.01, San Diego, CA, USA).

Hepatoma HepG2 cell line = assay: Antiproliferative assay (MTS), HepG2; assay type: cell-based; details: 72 h incubation
Method: Human embryonic kidney (HEK)-293 cell line (ATCC CRL-1573) was kindly donated by Prof. Dr. […] (Pharmaceutical Institute, Pharmaceutical Chemistry I, University of Bonn). Hepatoma HepG2 (ATCC HB-8065) cell line was kindly donated by the Department of Pharmacological Screening, Jagiellonian University Medical College. The cell cultures' growth conditions in presence of H3R antagonist 4 were applied as described before. The cells' viability was assessed after 72 h of incubation with H3R antagonist and the following references: doxorubicin (Sigma-Aldrich) and carbonyl cyanide 3-chlorophenylhydrazone (CCCP) (Sigma-Aldrich). CellTiter 96® AQueous non-radioactive cell proliferation assay (MTS) was purchased from Promega® and added to each well in the volume of 20 μL. The cells were then incubated for 2-5 h. The microplate reader EnSpire (PerkinElmer Ltd., Waltham, MA, USA) was used to measure the absorbance at 490 nm.

hH4R = molecular target: T3, hH4R (Homo sapiens, UniProt Q9H3N8); assay: H4R radioligand displacement assay, Sf9 cell membrane preparations; assay type: binding
T3 construct: expressed in transfected cells; host or cells: Sf9 insect cells (membrane preparations)
T3 sequence (Q9H3N8 whole entry): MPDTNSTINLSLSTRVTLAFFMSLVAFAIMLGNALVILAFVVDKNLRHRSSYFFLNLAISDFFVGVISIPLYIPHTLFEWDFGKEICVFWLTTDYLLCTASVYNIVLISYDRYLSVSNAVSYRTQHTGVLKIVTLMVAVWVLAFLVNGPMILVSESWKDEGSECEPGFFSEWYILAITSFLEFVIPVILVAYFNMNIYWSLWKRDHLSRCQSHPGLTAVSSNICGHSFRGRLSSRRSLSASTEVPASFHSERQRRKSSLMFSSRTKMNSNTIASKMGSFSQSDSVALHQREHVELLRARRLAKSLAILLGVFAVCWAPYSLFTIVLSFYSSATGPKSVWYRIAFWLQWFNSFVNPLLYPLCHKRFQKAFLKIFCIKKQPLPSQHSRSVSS
Method: H4R radioligand displacement assays were performed with Sf9 cell membrane preparations, expressing the hH4R, as described previously. Assays ran in triplicates with four appropriate concentrations of the test compound. Data were analyzed by GraphPad Prism 7, using the “one-site competition” equation.

[1] = 10 mg/kg i.p. co-administered with RAMH 10 mg/kg i.p.

T1 sequence (Q9Y5N1 whole entry): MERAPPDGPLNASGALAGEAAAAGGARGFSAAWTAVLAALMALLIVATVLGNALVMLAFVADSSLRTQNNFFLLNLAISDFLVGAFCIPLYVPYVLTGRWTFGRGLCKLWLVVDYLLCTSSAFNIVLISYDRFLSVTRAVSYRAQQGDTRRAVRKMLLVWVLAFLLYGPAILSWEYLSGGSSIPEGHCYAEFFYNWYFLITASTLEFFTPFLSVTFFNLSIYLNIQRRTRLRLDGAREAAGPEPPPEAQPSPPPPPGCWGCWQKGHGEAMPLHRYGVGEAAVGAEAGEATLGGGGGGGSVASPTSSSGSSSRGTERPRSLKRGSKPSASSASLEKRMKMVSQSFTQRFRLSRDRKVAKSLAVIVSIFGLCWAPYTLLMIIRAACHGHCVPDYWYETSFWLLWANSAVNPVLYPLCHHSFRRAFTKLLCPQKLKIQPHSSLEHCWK

SMILES: CC1CCCN(CCCCCCOc2ccc(C(=O)c3ccccc3)cc2)C1.O=C(O)C(=O)O (stereo not drawn) [Ligand 6, (4-(6-(3-methylpiperidin-1-yl)hexyloxy)phenyl)(phenyl)methanone hydrogen oxalate]
- pKi (human histamine H3R): 7.28
- pKi (human H1 receptor): 5.87 to 6.04
- MES-Induced Seizure (protection class) (MES-induced seizure): + (moderate protective effect (tonic hind limb extension (THLE) duration in the range of 2–5 s, seizure score in the range of 2–4))
- PTZ-Induced Seizure (protection class) (PTZ-induced seizure): −
- STR-Induced Seizure (protection class) (STR-induced seizure; 10 mg/kg i.p.): −
- pIC50 (CYP2D6): 6.17

SMILES: N#CC(C#N)=NNc1cccc(Cl)c1 [CCCP, carbonyl cyanide 3-chlorophenylhydrazone, reference compound]
- concentration with significant decrease of HepG2 proliferation/viability (Hepatoma HepG2 cell line): 10 µM

SMILES: Fc1ccc(OCCCCCCN2CCCCCC2)cc1.O=C(O)C(=O)O [Ligand 13, 1-(6-(4-fluorophenoxy)hexyl)azepane hydrogen oxalate]
- Ki (human histamine H3R; mean with 95% confidence interval, read-out: In Vitro Affinity Ki (hH3R) in nM [CI]): 137 nM
- pKi (human H1 receptor): 5.87
- fold lower affinity at hH1- and H4Rs than at H3R (human H1 receptor; selectivity toward H3Rs): at least 10 fold
- pKi (hH4R): < 5.00
- MES-Induced Seizure Average THLE (MES-induced seizure): 6.43 ± 1.14 s
- protective effect in MES-induced seizure (in words) (MES-induced seizure; vs saline-treated group): without protection
- MES-Induced Seizure (protection class) (MES-induced seizure): −
- PTZ-Induced Seizure % Protection against GTCS (PTZ-induced seizure): 85.71%
- PTZ-Induced Seizure Average Seizure Score (PTZ-induced seizure): 2.14 ± 0.47
- protective effect in PTZ-induced seizure (in words) (PTZ-induced seizure; observed over 30 min, vs saline-treated group): weak protection
- PTZ-Induced Seizure (protection class) (PTZ-induced seizure): + (moderate protective effect (tonic hind limb extension (THLE) duration in the range of 2–5 s, seizure score in the range of 2–4))
- STR-Induced Seizure % Protection against GTCS (STR-induced seizure; 2.5 mg/kg i.p.): 14.29%
- STR-Induced Seizure Average Seizure Score (STR-induced seizure; 2.5 mg/kg i.p.): 4.86 ± 0.13
- STR-Induced Seizure % Protection against GTCS (STR-induced seizure; 5 mg/kg i.p.): 85.71%
- STR-Induced Seizure Average Seizure Score (STR-induced seizure; 5 mg/kg i.p.): 3.00 ± 0.31
- STR-Induced Seizure % Protection against GTCS (STR-induced seizure; 10 mg/kg i.p.): 100%
- STR-Induced Seizure Average Seizure Score (STR-induced seizure; 10 mg/kg i.p.): 2.00 ± 0.35
- STR-Induced Seizure % Protection against GTCS (STR-induced seizure; [1]): 100%
- STR-Induced Seizure Average Seizure Score (STR-induced seizure; [1]): 2.14 ± 0.35
- protective effect in STR-induced seizure (in words) (STR-induced seizure; 10 mg/kg i.p., 30 min observation, vs saline-treated group): moderate protective effect
- STR-Induced Seizure (protection class) (STR-induced seizure; 10 mg/kg i.p.): + (moderate protective effect (tonic hind limb extension (THLE) duration in the range of 2–5 s, seizure score in the range of 2–4))
- STR-Induced Seizure % Protection against GTCS (STR-induced seizure; 15 mg/kg i.p.): 100%
- STR-Induced Seizure Average Seizure Score (STR-induced seizure; 15 mg/kg i.p.): 2.17 ± 0.31
